Earlier results on two substances are cited in patent US12514906B2, “Use of C-type natriuretic peptide variants to treat skeletal dysplasia” (BIOMARIN PHARMACEUTICAL INC., priority 2015, dated 2026).

For data set [1], the system named is NPR-B. To be noted: CNP-53 compared with CNP-22.
The subject of data set [2] is cGMP production. To be noted: CNP-53 compared with CNP-22.

Where no end group is shown, it is not given here.

As to “CNP-53: active 53-amino acid peptide generated from pro-CNP by furin cleavage (DLRVDTKSRAAWARLLQEHPNARKYKGANKKGLSKGCFGLKLDRIGSMSGLGC; ends and bridges not checked; cysteine pairing not given here; UniProt P23582 74-126, looked up)”, the “binding to NPR-B” value in data set [1] is listed as “bind similarly”. Moreover, in data set [2], the “induction of cGMP production” value was “dose-dependent and similar fashion”.

Consider “CNP: mature 22-amino acid wild type C-type natriuretic peptide”, for which the plasma half-life (in vivo in humans) is 2.6 min. Moreover, the in vivo half-life (normal human) was 2.6 min. For the same substance, the “binding to NPR-B” value in data set [1] is given as “bind similarly”. The “induction of cGMP production” value in data set [2] was “dose-dependent and similar fashion”.
